Measurements as given in patent US11034648B2, “Cystobactamide derivatives” (priority 2017, dated 2021).
Values after ≈ are worked out from the molar mass of the structure shown.

Columns and labels:
Type in all cases: cell-based
S. aureus Newman = assay: MIC, microbroth dilution susceptibility assay; settings: Staphylococcus aureus, NEWMAN; small panel, Tables 1a/1b; read-out: MIC S. aureus Newman
Protocol: (§1) Cystobactamid derivatives synthesized were tested against relevant Gram negative and positive bacteria of clinical interest. Experimental procedures used for the biological characterization of the compounds are the same as previously described in WO 2016/082934.
(§2) Bacterial strains used in susceptibility assays (minimum inhibitory concentration, MIC) were either part of our internal strain collection or purchased from the German Collection of Microorganisms and Cell Cultures (Deutsche Sammlung von Mikroorganismen und Zellkulturen, DSMZ) and the American Type Culture Collection (ATCC). The susceptible E. coli strain (WT) and fluoroquinolone-resistant mutants E. coli WT-3 and WT-III were kindly provided by Prof Dr. P. Heisig, Pharmaceutical Biology and Microbiology, University of Hamburg, Germany. The efflux-deficient strain P. aeruginosa ΔmexAB was kindly provided by Prof Dr. S. Häußler, Institute for Molecular Bacteriology, TWINCORE, Hannover, Germany. All compounds were prepared as DMSO stocks and MIC values were determined in standard microbroth dilution assays in 96-well MTPs as described in Baumann et al., Angew Chem Int Ed Engl. 2014; 53(52):14605-9. In brief, overnight cultures of bacteria were diluted in either tryptic soy broth (TSB: 1.7% peptone casein, 0.3% peptone soymeal, 0.25% glucose, 0.5% NaCl, 0.25% K2HPO4; pH 7.3; S. pneumoniae and E. faecalis) or cation-adjusted Müller-Hinton Broth (BBL™, BD; all other bacteria) and adjusted to 10^4-10^6 cfu/mL. Bacteria were grown in the presence of the derivatives in serial dilution for approx. 16 h at 30-37° C. MIC values were determined and were defined as the antibiotic concentration at which no visual growth of bacteria was observed.

P. aeruginosa WT PA14 = assay: MIC, microbroth dilution susceptibility assay; settings: Pseudomonas aeruginosa, PA14, small panel, Tables 1a/1b; read-out: MIC P. aeruginosa WT PA14
Protocol: as §1, §2

E. coli WT DSM-1116 = assay: MIC, microbroth dilution susceptibility assay; settings: Escherichia coli, DSM1116; small panel, Tables 1a/1b; no visual growth after approx. 16 h; read-out: MIC E. coli WT DSM-1116
Protocol: as §1, §2

E. coli ΔtolC = assay: microbe, parasite or virus in culture; settings: Escherichia coli, 16 h, read-out: MIC E. coli ΔtolC, small panel, Tables 1a/1b; no visual growth after approx. 16 h
Protocol: as §1, §2

P. aeruginosa ΔmexAB = assay: microbe, parasite or virus in culture; settings: Pseudomonas aeruginosa, 16 h, read-out: MIC P. aeruginosa ΔmexAB, efflux-deficient strain; small panel, Tables 1a/1b
Protocol: as §1, §2

Row | SMILES | MIC (S. aureus Newman) [µg/mL] | MIC (P. aeruginosa WT PA14) [µg/mL] | MIC (E. coli WT DSM-1116) [µg/mL] | MIC (E. coli ΔtolC) [µg/mL] | MIC (P. aeruginosa ΔmexAB) [µg/mL]
1 | CC(C)Oc1cc(C(=O)Nc2ccc(C(=O)O)cc2)ccc1NC(=O)c1ccc(NC(=O)[C@H](CC(N)=O)NC(=O)c2ccc(NC(=O)c3ccc([N+](=O)[O-])cc3)cc2)cc1 [Compound 69, (S)-4-(4-(4-(4-amino-2-(4-(4-nitrobenzamido)benzamido)-4-oxobutanamido)benzamido)-3-isopropoxybenzamido)benzoic acid] | > 64 | > 64 | > 64 | 0.06 (≈ 0.0735 µM) | 1 (≈ 1.23 µM)
2 | CC(C)Oc1c(NC(=O)c2ccc(NC(=O)[C@H](CC(N)=O)NC(=O)c3ccc(NC(=O)c4ccc(NC(N)=O)cc4)cc3)cc2)ccc(C(=O)Nc2ccc(C(=O)O)cc2)c1O [Compound 46, (S)-4-(4-(4-(4-amino-4-oxo-2-(4-(4-ureidobenzamido)benzamido)butanamido)benzamido)-2-hydroxy-3-isopropoxybenzamido)benzoic acid] | 64 (≈ 75.8 µM) | > 64 | 0.5 (≈ 0.592 µM) | 0.03 (≈ 0.0355 µM) | 4 (≈ 4.73 µM)
3 | CC(C)Oc1c(NC(=O)c2ccc(NC(=O)[C@H](CC(N)=O)NC(=O)c3ccc(NC(=O)c4ccc(C#N)cc4)cc3)cc2)ccc(C(=O)N[C@@H]2CONC2=O)c1O [Compound 93, (S)-2-(4-(4-cyanobenzamido)benzamido)-N1-(4-((3-hydroxy-2-isopropoxy-4-(((R)-3-oxoisoxazolidin-4-yl)carbamoyl)phenyl)carbamoyl)phenyl)succinamide] | > 64 | > 64 | > 64 | 0.5 (≈ 0.644 µM) | > 64
4 | CC(C)Oc1c(NC(=O)c2ccc(NC(=O)[C@H](CC(N)=O)NC(=O)c3ccc(NC(=O)c4ccc(C#N)c(F)c4)cc3)cc2)ccc(C(=O)Nc2ccc(C(=O)O)cc2)c1O [Compound 51, (S)-4-(4-(4-(4-amino-2-(4-(4-cyano-3-fluorobenzamido)benzamido)-4-oxobutanamido)benzamido)-2-hydroxy-3-isopropoxybenzamido)benzoic acid] | 2 (≈ 2.41 µM) | 8 (≈ 9.64 µM) | 0.25 (≈ 0.301 µM) | ≤ 0.03 | 0.5 (≈ 0.603 µM)
5 | C/C(=C\c1ccc(C#N)cc1)C(=O)Nc1ccc(C(=O)N[C@@H](CC(N)=O)C(=O)Nc2ccc(C(=O)Nc3ccc(C(=O)Nc4ccc(C(=O)O)cc4)c(O)c3OC(C)C)cc2)cc1 [Compound 58, (S,E)-4-(4-(4-(4-amino-2-(4-(3-(4-cyanophenyl)-2-methylacrylamido)benzamido)-4-oxobutanamido)benzamido)-2-hydroxy-3-isopropoxybenzamido)benzoic acid] | 0.06 (≈ 0.0704 µM) | 1 (≈ 1.17 µM) | 0.125 (≈ 0.147 µM) | < 0.03 | 0.25 (≈ 0.293 µM)
6 | CC(C)Oc1c(NC(=O)c2ccc(NC(=O)[C@H](CC(N)=O)NC(=O)c3ccc(NC(=O)c4ccc(C#N)cc4)cc3)cc2)ccc(C(=O)NCc2ccc(C(=O)O)cc2)c1O [Compound 89, (S)-4-((4-(4-(4-amino-2-(4-(4-cyanobenzamido)benzamido)-4-oxobutanamido)benzamido)-2-hydroxy-3-isopropoxybenzamido)methyl)benzoic acid] | > 64 | > 64 | > 64 | 0.25 (≈ 0.303 µM) | > 64
7 | CC(C)Oc1c(NC(=O)c2ccc(NC(=O)[C@H](CC(N)=O)NC(=O)c3ccc(NC(=O)c4ccc(N)cc4)cc3)cc2)ccc(C(=O)Nc2ccc(C(=O)O)cc2)c1O [Compound 40, (S)-4-(4-(4-(4-amino-2-(4-(4-aminobenzamido)benzamido)-4-oxobutanamido)benzamido)-2-hydroxy-3-isopropoxybenzamido)benzoic acid] | > 64 | > 64 | 2 (≈ 2.49 µM) | 32 (≈ 39.9 µM) | 4 (≈ 4.99 µM)
8 | CC(C)Oc1c(NC(=O)c2ccc(NC(=O)[C@H](CC(N)=O)NC(=O)c3ccc(NC(=O)c4cccc([N+](=O)[O-])c4)cc3)cc2)ccc(C(=O)Nc2ccc(C(=O)O)cc2)c1O [Compound 41, (S)-4-(4-(4-(4-amino-2-(4-(3-nitrobenzamido)benzamido)-4-oxobutanamido)benzamido)-2-hydroxy-3-isopropoxybenzamido)benzoic acid] | > 64 | > 64 | > 64 | 0.25 (≈ 0.301 µM) | 0.5 (≈ 0.601 µM)
9 | Cc1cc(C(=O)Nc2ccc(C(=O)N[C@@H](CC(N)=O)C(=O)Nc3ccc(C(=O)Nc4ccc(C(=O)Nc5ccc(C(=O)O)cc5)c(O)c4OC(C)C)cc3)cc2)ccc1C#N [Compound 52, (S)-4-(4-(4-(4-amino-2-(4-(4-cyano-3-methylbenzamido)benzamido)-4-oxobutanamido)benzamido)-2-hydroxy-3-isopropoxybenzamido)benzoic acid] | 2 (≈ 2.42 µM) | 4 (≈ 4.84 µM) | 0.5 (≈ 0.605 µM) | 0.03 (≈ 0.0363 µM) | 0.5 (≈ 0.605 µM)
10 | CC(=O)Nc1ccc(C(=O)Nc2ccc(C(=O)N[C@@H](CC(N)=O)C(=O)Nc3ccc(C(=O)Nc4ccc(C(=O)Nc5ccc(C(=O)O)cc5)c(O)c4OC(C)C)cc3)cc2)cc1 [Compound 36, (S)-4-(4-(4-(2-(4-(4-acetamidobenzamido)benzamido)-4-amino-4-oxobutanamido)benzamido)-2-hydroxy-3-isopropoxybenzamido)benzoic acid] | 64 (≈ 75.8 µM) | > 64 | 16 (≈ 19 µM) | 0.06 (≈ 0.0711 µM) | > 64
11 | CC(C)COc1c(NC(=O)c2ccc(NC(=O)[C@H](CC(N)=O)NC(=O)c3ccc(NC(=O)c4ccc(C#N)cc4)cc3)cc2)ccc(C(=O)Nc2ccc(C(=O)O)cc2)c1O [Compound 126, (S)-4-(4-(4-(4-amino-2-(4-(4-cyanobenzamido)benzamido)-4-oxobutanamido)benzamido)-2-hydroxy-3-isobutoxybenzamido)benzoic acid] | 0.25 (≈ 0.303 µM) | > 64 | 0.25 (≈ 0.303 µM) | < 0.03 | > 64
12 | CC(C)Oc1c(NC(=O)c2ccc(NC(=O)[C@H](CC(N)=O)NC(=O)c3ccc(NC(=O)c4ccc(NC(=O)c5ccc([N+](=O)[O-])cc5)cc4)cc3)cc2)ccc(C(=O)Nc2ccc(C(=O)O)cc2)c1O [Compound 47, (S)-4-(4-(4-(4-amino-2-(4-(4-(4-nitrobenzamido)benzamido)benzamido)-4-oxobutanamido)benzamido)-2-hydroxy-3-isopropoxybenzamido)benzoic acid] | > 64 | > 64 | 2 (≈ 2.1 µM) | > 64 | > 64
13 | CO[C@@H](C(N)=O)[C@H](NC(=O)c1ccc(NC(=O)/C(C)=C/c2ccc(C#N)cc2)cc1)C(=O)Nc1ccc(C(=O)Nc2ccc(C(=O)Nc3ccc(C(=O)O)cc3)c(O)c2OC(C)C)cc1 [Compound 123, 4-(4-(4-((2S,3R)-4-amino-2-(4-((E)-3-(4-cyanophenyl)-2-methylacrylamido)benzamido)-3-methoxy-4-oxobutanamido)benzamido)-2-hydroxy-3-isopropoxybenzamido)benzoic acid] | 4 (≈ 4.54 µM) | 8 (≈ 9.07 µM) | 1 (≈ 1.13 µM) | 0.5 (≈ 0.567 µM) | 2 (≈ 2.27 µM)
14 | C/C(=C/c1ccc(C#N)cc1)C(=O)Nc1ccc(C(=O)N[C@@H](CC(N)=O)C(=O)Nc2ccc(C(=O)Nc3ccc(C(=O)Nc4ccc(C(=O)O)cc4)c(O)c3OC(C)C)cc2)cc1 [Compound 122, (S,Z)-4-(4-(4-(4-amino-2-(4-(3-(4-cyanophenyl)-2-methylacrylamido)benzamido)-4-oxobutanamido)benzamido)-2-hydroxy-3-isopropoxybenzamido)benzoic acid] | 8 (≈ 9.39 µM) | > 64 | 1 (≈ 1.17 µM) | 0.25 (≈ 0.293 µM) | > 64
15 | CC(C)Oc1c(NC(=O)c2ccc(NC(=O)[C@H](CC(N)=O)NC(=O)c3ccc(NC(=O)c4ccc5c(c4)COC5=O)cc3)cc2)ccc(C(=O)Nc2ccc(C(=O)O)cc2)c1O [Compound 57, (S)-4-(4-(4-(4-amino-4-oxo-2-(4-(1-oxo-1,3-dihydroisobenzofuran-5-carboxamido)benzamido)butanamido)benzamido)-2-hydroxy-3-isopropoxybenzamido)benzoic acid] | 1 (≈ 1.19 µM) | > 64 | < 0.03 | < 0.03 | 1 (≈ 1.19 µM)
16 | CC(C)Oc1c(NC(=O)c2ccc(NC(=O)[C@H](CC(N)=O)NC(=O)c3ccc(NC(=O)c4ccc(C#N)cc4)cc3)cc2)ccc(C(=O)Nc2ccncc2)c1O [Compound 94, (S)-2-(4-(4-cyanobenzamido)benzamido)-N1-(4-((3-hydroxy-2-isopropoxy-4-(pyridin-4-ylcarbamoyl)phenyl)carbamoyl)phenyl)succinamide] | > 64 | > 64 | > 64 | 0.03 (≈ 0.039 µM) | > 64
